Test results: ChEMBL document CHEMBL6092170, “Activity of the Caged Xanthone Morellic Acid against Vancomycin-Resistant Enterococcus Infection by Targeting the Bacterial Membrane” (2024)
Values after ≈ are worked out from the molar mass of the structure shown. Active and inactive are the calls of the source. The calls are words filed in the database; no cut-off is given here.

How the values were obtained:
[1] = system: Staphylococcus aureus; test: Antibacterial activity against methicillin-resistant Staphylococcus aureus incubated for 24 hrs by CLSI based microdilution method; format: functional
[2] = system: Enterococcus faecalis; test: Antibacterial activity against vancomycin-resistant Enterococcus faecalis ATCC 51299 incubated for 24 hrs by CLSI based microdilution method; format: functional
[3] = system: Enterococcus faecalis; test: Antibacterial activity against vancomycin-resistant Enterococcus faecalis ATCC 51299 assessed as bacterial growth inhibition at 0.5 to 4 times MIC measured after 12 hrs by absorbance based assay; format: functional, organism-based
[4] = system: Enterococcus faecalis; test: Antibacterial activity against vancomycin-resistant Enterococcus faecalis ATCC 51299 infected in specific pathogen-free Kunming mouse model of abdominal infection assessed as reduction in bacterial load in spleen at 10 mg/kg, ip measured after 72 hrs by plate counting method; format: functional, organism-based
[5] = system: Staphylococcus aureus; test: Antibacterial activity against Staphylococcus aureus assessed as bacterial growth inhibition at 0.5 to 4 times MIC measured for 4 hrs by absorbance based assay; format: functional, organism-based
[6] = system: Enterococcus faecalis; test: Disruption of morphology in vancomycin-resistant Enterococcus faecalis ATCC 51299 at 4 times MIC incubated for 18 hrs by SEM analysis; format: functional, organism-based
[7] = system: Enterococcus faecalis; test: Antibacterial activity against vancomycin-resistant Enterococcus faecalis ATCC 51299 infected in specific pathogen-free Kunming mouse model of abdominal infection assessed as reduction in bacterial load in liver at 10 mg/kg, ip measured after 72 hrs by plate counting method; format: functional, organism-based
[8] = system: Enterococcus faecalis; test: Antibacterial activity against vancomycin-resistant Enterococcus faecalis ATCC 51299 infected in specific pathogen-free Kunming mouse model of abdominal infection assessed as reduction in bacterial load in abdominal effusion at 10 mg/kg, ip measured after 72 hrs by plate counting method; format: functional, organism-based
[9] = system: Enterococcus faecalis; test: Antibacterial activity against vancomycin-resistant Enterococcus faecalis ATCC 51299 infected in specific pathogen-free Kunming mouse model of abdominal infection assessed as reduction in bacterial load in kidney at 10 mg/kg, ip measured after 72 hrs by plate counting method; format: functional, organism-based
[10] = system: Enterococcus faecalis; test: Induction of resistance development in vancomycin-resistant Enterococcus faecalis ATCC 51299 at sub-MIC measured after 20 days of continuous passages; format: functional, organism-based; conditions: time 20.0 day
[11] = system: Enterococcus faecalis; test: Induction of resistance development in vancomycin-resistant Enterococcus faecalis ATCC 51299 assessed as fold increase in activity at sub-MIC measured after 4 days of continuous passages relative to control; format: functional; conditions: time 4 day
[12] = system: Enterococcus faecalis; test: Disruption of membrane integrity in vancomycin-resistant Enterococcus faecalis ATCC 51299 at 2 times MIC incubated for 2 hrs by SYTOX Green staining based CLSM analysis; format: functional, organism-based
[13] = system: Enterococcus faecalis; test: Disruption of membrane integrity in vancomycin-resistant Enterococcus faecalis ATCC 51299 at 2 times MIC incubated for 2 hrs by Hoechst staining based CLSM analysis; format: functional, organism-based
[14] = system: Enterococcus faecalis; test: Disruption of membrane integrity in vancomycin-resistant Enterococcus faecalis ATCC 51299 at 2 times MIC incubated for 2 hrs by PI staining based CLSM analysis; format: functional, organism-based

Row | SMILES | MIC [1] | MIC [2] | further results
1 | C=C(C)C1CC[C@]2(C)CC1c1c(O)c3c(c(CC=C(C)C)c1O2)O[C@]12C(=C[C@@H]4CC1C(C)(C)OC2(C/C=C(\C)C(=O)O)C4=O)C3=O (stereo partly drawn) | > 16 µg/mL | > 16 µg/mL | –
2 | COc1cc2oc3cc(O)c(OC)c(CC=C(C)C)c3c(=O)c2c(O)c1CC=C(C)C | > 16 µg/mL | 16 µg/mL (≈ 37.7 µM) | –
3 | CC(C)=CCc1c(O)c(CC=C(C)C)c2oc3c(O)cccc3c(=O)c2c1O [8-DEOXYGARTANIN] | > 16 µg/mL | > 16 µg/mL | –
4 | CN[C@H](CC(C)C)C(=O)N[C@H]1C(=O)N[C@@H](CC(N)=O)C(=O)N[C@H]2C(=O)N[C@H]3C(=O)N[C@H](C(=O)N[C@H](C(=O)O)c4cc(O)cc(O)c4-c4cc3ccc4O)[C@H](O)c3ccc(c(Cl)c3)Oc3cc2cc(c3O[C@@H]2O[C@H](CO)[C@@H](O)[C@H](O)[C@H]2O[C@H]2C[C@](C)(N)[C@H](O)[C@H](C)O2)Oc2ccc(cc2Cl)[C@H]1O | – | – | inhibition [3]: inactive
5 | COc1cc2oc3cc(OC)c(OC)c(CC=C(C)C)c3c(=O)c2c(O)c1CC=C(C)C | > 16 µg/mL | > 16 µg/mL | –
6 | CC(C)=CCc1c(O)c(CC=C(C)C)c2oc3c(O)ccc(O)c3c(=O)c2c1O [GARTANIN] | > 16 µg/mL | > 16 µg/mL | –
7 | CC(C)=CCc1c(O)cc2oc3cc(O)c(O)c(CC=C(C)C)c3c(=O)c2c1O | 4 µg/mL (≈ 10.1 µM) | 4 µg/mL (≈ 10.1 µM) | –
8 | CC1(C)S[C@@H]2[C@H](NC(=O)[C@H](N)c3ccccc3)C(=O)N2[C@H]1C(=O)O [AMPICILLIN] | – | 4 µg/mL (≈ 11.4 µM) | Activity [4]: Active; inhibition [5]: Active; Activity [6]: Active; Activity [7]: Active; Activity [8]: Active; Activity [9]: Active
9 | CCCCCCCCCC(=O)N[C@@H](Cc1c[nH]c2ccccc12)C(=O)N[C@@H](CC(N)=O)C(=O)N[C@@H](CC(=O)O)C(=O)N[C@@H]1C(=O)NCC(=O)N[C@@H](CCCN)C(=O)N[C@@H](CC(=O)O)C(=O)N[C@H](C)C(=O)N[C@@H](CC(=O)O)C(=O)NCC(=O)N[C@H](CO)C(=O)N[C@@H]([C@@H](C)CC(=O)O)C(=O)N[C@@H](CC(=O)c2ccccc2N)C(=O)O[C@@H]1C | – | – | Activity [10]: inactive; fold change (FC) [11]: 32
10 | CC(C)=CCC[C@]1(C)CC(O)c2c(O)c3c(c(CC=C(C)C)c2O1)O[C@]12C(=C[C@@H]4C[C@H]1C(C)(C)O[C@@]2(C/C=C(/C)C(=O)O)C4=O)C3=O (stereo partly drawn) | 8 µg/mL (≈ 12.4 µM) | 16 µg/mL (≈ 24.7 µM) | –
11 | COc1c(O)cc2oc3cc(O)c(CC=C(C)C)c(O)c3c(=O)c2c1CC=C(C)C [MANGOSTIN] | 4 µg/mL (≈ 9.75 µM) | 4 µg/mL (≈ 9.75 µM) | –
12 | CC(C)=CCc1c(O)cc2oc3cc(O)c(O)c(CCC(C)(C)O)c3c(=O)c2c1O | 4 µg/mL (≈ 9.65 µM) | > 16 µg/mL | –
13 | CO[C@@]1(NC(=O)Cc2cccs2)C(=O)N2C(C(=O)O)=C(COC(N)=O)CS[C@@H]21 [CEFOXITIN] | > 16 µg/mL | – | –
14 | COc1c(O)cc2oc3cc(O)c(CC=C(C)C)c(O)c3c(=O)c2c1CCC(C)(C)O [GARCINONE D] | 8 µg/mL (≈ 18.7 µM) | 4 µg/mL (≈ 9.34 µM) | –
15 | CC[C@H](C)[C@H](NC(=O)CN)C(=O)NCC(=O)N[C@@H](C)C(=O)N[C@H](C(=O)N[C@@H](CC(C)C)C(=O)N[C@@H](CCCCN)C(=O)N[C@H](C(=O)N[C@@H](CC(C)C)C(=O)N[C@H](C(=O)N[C@H](C(=O)NCC(=O)N[C@@H](CC(C)C)C(=O)N1CCC[C@H]1C(=O)N[C@@H](C)C(=O)N[C@@H](CC(C)C)C(=O)N[C@H](C(=O)N[C@@H](CO)C(=O)N[C@@H](Cc1c[nH]c2ccccc12)C(=O)N[C@H](C(=O)N[C@@H](CCCCN)C(=O)N[C@@H](CCCNC(=N)N)C(=O)N[C@@H](CCCCN)C(=O)N[C@@H](CCCNC(=N)N)C(=O)N[C@@H](CCC(N)=O)C(=O)N[C@@H](CCC(N)=O)C(N)=O)[C@@H](C)CC)[C@@H](C)CC)[C@@H](C)O)[C@@H](C)O)C(C)C)C(C)C | – | – | Activity [12]: Active; Activity [13]: Active; Activity [14]: Active
16 | COc1c(O)cc2oc3cc(O)c(CCC(C)(C)O)c(O)c3c(=O)c2c1CC=C(C)C | 16 µg/mL (≈ 37.3 µM) | 16 µg/mL (≈ 37.3 µM) | –
17 | CC(C)=CCC[C@]1(C)C=Cc2c(O)c3c(c(CC=C(C)C)c2O1)O[C@]12C(=C[C@@H]4C[C@H]1C(C)(C)O[C@@]2(C/C=C(/C)C(=O)O)C4=O)C3=O [GAMBOGIC ACID] | 4 µg/mL (≈ 6.36 µM) | 4 µg/mL (≈ 6.36 µM) | –
